Source: patent publication US9988635B2, “Modulation of growth hormone receptor expression and insulin-like growth factor expression” (Antisense Therapeutics Limited, priority 2003, dated 2018)
Where a name gives a salt, the structure may show the parent alone. In the oligonucleotide strings, read from the 5' end, every base follows the letter of its sugar. An asterisk marks phosphorothioate; unmarked linkages are phosphodiester. Other units and linkages are bracketed, terminal groups are in braces. A string of capitals states the bases alone. e = 2'-O-(2-methoxyethyl) (MOE); [5mC] = 5-methylcytosine; d = 2'-deoxy (DNA)

System: serum IGF-I
Assay: Serum IGF-I, 2 week study in mice
Assay type: in vivo, mouse
Conditions: 30 mg/kg; 2 weeks
Experimental: A two-week study was done in similar fashion to the one-week study in Example 18, this time using ISIS 227446 at doses of 3, 5, 10, 20 and 30 mg/kg. The mismatch control was given at the same doses. Mice were treated with antisense compound or saline every other day for 14 days.
P-values were determined by t-test.

| Compound | effect on serum IGF-I at 30 mg/kg as observed with the mismatch oligonucleotide |
| --- | --- |
| TTACCGTATGGTTCCTCACT (chemistry not given here) [ISIS 260120, unrelated negative control oligonucleotide, reference compound] | not observed |

System: not given
Assay: not given
Conditions: dosed orally; cited from earlier work

| Compound | reduce growth hormone production and associated IGF-I sufficiently, % of cases |
| --- | --- |
| C=CCN1C[C@H](C(=O)N(CCCN(C)C)C(=O)NCC)C[C@@H]2c3cccc4[nH]cc(c34)C[C@H]21 [cabergoline] | 10% |
| CC(C)C[C@H]1C(=O)N2CCC[C@H]2[C@]2(O)O[C@](NC(=O)[C@@H]3C=C4c5cccc6[nH]c(Br)c(c56)C[C@H]4N(C)C3)(C(C)C)C(=O)N12 [bromocriptine mesylate] | 10% |

System: not listed separately
Assay: Body weight, body length, organ weights and food intake, 1 week pilot study
Assay type: in vivo, mouse
Conditions: octreotide group
Experimental: Saline, antisense, mismatch control and octreotide samples were prepared, and coded for blinding. Animals were given a subcutaneous dose of saline every second day, and mismatch control or antisense with administration on days 0, 2, 4, 6. Animals were given twice daily doses of 25 μg octreotide. Animals were housed 4 per cage, for the duration of one week. They had access to a pre-determined quantity of standard mouse food and water at all times throughout the experiment. They were housed in a quiet, temperature- and humidity-maintained environment for the entirety of the study. At day 0 and before treatment on each day or second day, the animals had their body weight and food intake measured, enabling the correct dose of agent to be administered. The animals were monitored closely for any changes in fur, skin, eye, locomotion or other changes in behavior. No problems were observed. Every second day from day −7 to day 7 body weight and food intake were measured.
The serum remaining following the insulin-like growth factor-1 assay was isolated and stored at −80° C. The whole liver was removed rapidly for weighing and snap-frozen in labelled aluminum parcels by submersion in liquid-nitrogen. […]
This confirms published results of others. […] Weight was measured in two ways: weight trend (live animal), and final carcass weight. […]

| Compound | liver weight (g/total body weight) |
| --- | --- |
| C[C@@H](O)[C@@H]1NC(=O)[C@H](CCCCN)NC(=O)[C@@H](Cc2c[nH]c3ccccc23)NC(=O)[C@H](Cc2ccccc2)NC(=O)[C@@H](NC(=O)[C@H](N)Cc2ccccc2)CSSC[C@@H](C(=O)N[C@H](CO)[C@@H](C)O)NC1=O [Octreotide, octreotide, reference compound] | slight increase |

System: mouse growth hormone receptor mRNA
Assay: Inhibition of mouse growth hormone receptor mRNA levels in b.END cells, quantitative real-time PCR, incl. dose-response
Assay type: cell-based
Conditions: averages from three experiments
Experimental: The mouse brain endothelial cell line b.END was obtained from Dr. Werner Risau at the Max Plank Instititute (Bad Nauheim, Germany). b.END cells were routinely cultured in DMEM, high glucose (Gibco/Life Technologies, Gaithersburg, Md.) supplemented with 10% fetal calf serum (Gibco/Life Technologies, Gaithersburg, Md.). Cells were routinely passaged by trypsinization and dilution when they reached 90% confluence. Cells were seeded into 96-well plates (Falcon-Primaria #3872) at a density of 3000 cells/well for use in RT-PCR analysis.
When cells reached 65-75% confluency, they were treated with oligonucleotide. For cells grown in 96-well plates, wells were washed once with 100 μL OPTI-MEM™-1 reduced-serum medium (Invitrogen Corporation, Carlsbad, Calif.) and then treated with 130 μL of OPTI-MEM™-1 containing 3.75 μg/mL LIPOFECTIN™ (Invitrogen Corporation, Carlsbad, Calif.) and the desired concentration of oligonucleotide. Cells are treated and data are obtained in triplicate. After 4-7 hours of treatment at 37° C., the medium was replaced with fresh medium. Cells were harvested 16-24 hours after oligonucleotide treatment.
Total RNA was isolated using an RNEASY 96™ kit and buffers purchased from Qiagen Inc. (Valencia, Calif.) following the manufacturer's recommended procedures. Briefly, for cells grown on 96-well plates, growth medium was removed from the cells and each well was washed with 200 μL cold PBS. 150 μL Buffer RLT was added to each well and the plate vigorously agitated for 20 seconds. 150 μL of 70% ethanol was then added to each well and the contents mixed by pipetting three times up and down. The samples were then transferred to the RNEASY 96™ well plate attached to a QIAVAC™ manifold fitted with a waste collection tray and attached to a vacuum source. Vacuum was applied for 1 minute. 500 μL of Buffer RW1 was added to each well of the RNEASY 96™ plate and incubated for 15 minutes and the vacuum was again applied for 1 minute. An additional 500 μL of Buffer RW1 was added to each well of the RNEASY 96™ plate and the vacuum was applied for 2 minutes. 1 mL of Buffer RPE was then added to each well of the RNEASY 96™ plate and the vacuum applied for a period of 90 seconds. The Buffer RPE wash was then repeated and the vacuum was applied for an additional 3 minutes. The plate was then removed from the QIAVAC™ manifold and blotted dry on paper towels. The plate was then re-attached to the QIAVAC™ manifold fitted with a collection tube rack containing 1.2 mL collection tubes. RNA was then eluted by pipetting 140 μL of RNAse free water into each well, incubating 1 minute, and then applying the vacuum for 3 minutes.
Quantitation of growth hormone receptor mRNA levels was accomplished by real-time quantitative PCR using the ABI PRISM™ 7600, 7700, or 7900 Sequence Detection System (PE-Applied Biosystems, Foster City, Calif.) according to manufacturer's instructions. This is a closed-tube, non-gel-based, fluorescence detection system which allows high-throughput quantitation of polymerase chain reaction (PCR) products in real-time. As opposed to standard PCR in which amplification products are quantitated after the PCR is completed, products in real-time quantitative PCR are quantitated as they accumulate. This is accomplished by including in the PCR reaction an oligonucleotide probe that anneals specifically between the forward and reverse PCR primers, and contains two fluorescent dyes. A reporter dye (e.g., FAM or JOE, obtained from either PE-Applied Biosystems, Foster City, Calif., Operon Technologies Inc., Alameda, Calif. or Integrated DNA Technologies Inc., Coralville, Iowa) is attached to the 5′ end of the probe and a quencher dye (e.g., TAMRA, obtained from either PE-Applied Biosystems, Foster City, Calif., Operon Technologies Inc., Alameda, Calif. or Integrated DNA Technologies Inc., Coralville, Iowa) is attached to the 3′ end of the probe. […]

| Compound | % INHIB of mouse growth hormone receptor mRNA levels |
| --- | --- |
| 227449 (antisense eA*e[5mC]*eG*eA*e[5mC]*dA*d[5mC]*dT*dT*dG*dG*dT*dG*dA*dA*eT*e[5mC]*eG*eA*eG) [compound 227449] | 69% |
| 227451 (antisense eA*eT*eG*eA*eG*d[5mC]*dA*dA*dT*dT*d[5mC]*dT*dT*dG*d[5mC]*eA*eG*e[5mC]*eT*eT) [compound 227451] | 49% |
| 227445 (antisense eT*eA*e[5mC]*e[5mC]*eT*dG*dA*dG*dA*d[5mC]*d[5mC]*dT*d[5mC]*dG*dG*eA*eG*eT*eT*eT) [compound 227445] | 69% |
| 227513 (antisense eT*eA*e[5mC]*e[5mC]*eT*dG*dA*dG*dA*d[5mC]*d[5mC]*dT*dG*d[5mC]*dA*eA*eG*eA*e[5mC]*eA) [compound 227513] | 40% |
| 227505 (antisense eT*eA*e[5mC]*e[5mC]*eT*dG*dA*dG*dA*d[5mC]*d[5mC]*d[5mC]*dA*d[5mC]*dA*eA*eG*e[5mC]*eG*eG) [compound 227505] | 39% |
| 227514 (antisense eA*eT*eG*e[5mC]*eT*d[5mC]*dA*d[5mC]*dG*dT*d[5mC]*dA*dG*d[5mC]*dT*eA*eT*eT*eG*eG) [compound 227514] | 43% |
| 227497 (antisense eT*eA*eA*eA*eT*dG*dT*dT*dT*dT*dG*d[5mC]*dA*dT*dA*eT*e[5mC]*e[5mC]*eA*eA) [compound 227497] | 77% |
| 227495 (antisense eT*e[5mC]*e[5mC]*eT*eG*dA*dA*d[5mC]*dT*dG*d[5mC]*dA*dA*dA*dA*eG*e[5mC]*e[5mC]*eA*e[5mC]) [compound 227495] | 47% |
| 227517 (antisense e[5mC]*eT*eT*e[5mC]*eA*d[5mC]*dT*dA*dA*d[5mC]*d[5mC]*dT*dT*dG*d[5mC]*eA*eG*e[5mC]*eT*eT) [compound 227517] | 63% |
| 227455 (antisense eA*eG*eT*eA*eG*dG*dG*dT*dA*dT*d[5mC]*d[5mC]*dA*dA*dA*eT*eG*eG*eA*eG) [compound 227455] | 43% |
| 227491 (antisense eT*eA*eG*eG*eA*dA*dA*dG*dG*d[5mC]*dT*dA*d[5mC]*dT*dG*e[5mC]*eA*eT*eG*eA) [compound 227491] | 65% |
| 227460 (antisense eA*eA*e[5mC]*eT*eG*dG*dA*dT*dA*dT*d[5mC]*dT*dT*d[5mC]*dT*eT*e[5mC]*eA*e[5mC]*eA) [compound 227460] | 43% |
| 227474 (antisense eT*eG*eT*e[5mC]*eG*d[5mC]*dT*dT*dA*d[5mC]*dT*dT*dG*dG*dG*e[5mC]*eA*eT*eA*eA) [compound 227474] | 68% |
